Experimental data taken from patent publication US20060263802A1 (priority 2003, published 2006).

What was measured:
Assay type in all cases: binding
[1] = tested on: human monoclonal antibody CRJB
[2] = tested on: human monoclonal antibody CR57
[3] = tested on: human monoclonal antibody CRJA
[4] = tested on: human monoclonal antibody CRJB; remark: listed apart in the source
[5] = tested on: human monoclonal antibody CR57; remark: listed apart in the source
[6] = tested on: human monoclonal antibody CRJA; remark: listed apart in the source

| Sequence | Binding of CRJB to linear peptide (PEPSCAN-ELISA signal) [1] | Binding of CR57 to linear peptide (PEPSCAN-ELISA signal) [2] | Binding of CRJA to linear peptide (PEPSCAN-ELISA signal) [3] | Binding of CRJB (10 μg/ml) to looped/cyclic peptide (PEPSCAN-ELISA signal) [4] | Binding of CR57 (10 μg/ml) to looped/cyclic peptide (PEPSCAN-ELISA signal) [5] | Binding of CRJA (10 μg/ml) to looped/cyclic peptide (PEPSCAN-ELISA signal) [6] | Binding of CRJB (10 μg/ml) to looped/cyclic peptide (PEPSCAN-ELISA) [4] | Binding of CR57 (10 μg/ml) to looped/cyclic peptide (PEPSCAN-ELISA) [5] | Binding of CRJA (10 μg/ml) to looped/cyclic peptide (PEPSCAN-ELISA) [6] | binding of antibody CR57 to looped/cyclic peptide (PEPSCAN OD) [5] | Binding of human monoclonal antibody CRJB to linear peptide (PEPSCAN-ELISA signal) [1] | Binding of human monoclonal antibody CR57 to linear peptide (PEPSCAN-ELISA signal) [2] | Binding of human monoclonal antibody CRJA to linear peptide (PEPSCAN-ELISA signal) [3] | Binding of CRJB to looped/cyclic peptide (PEPSCAN-ELISA signal) [4] | Binding of CR57 to looped/cyclic peptide (PEPSCAN-ELISA signal) [5] | Binding of CRJA to looped/cyclic peptide (PEPSCAN-ELISA signal) [6] | binding of antibody CR57 to linear peptide (PEPSCAN OD) [2] |
| --- | --- | --- | --- | --- | --- | --- | --- | --- | --- | --- | --- | --- | --- | --- | --- | --- | --- |
| VVEDEGCTNLSGFSY | 107 | 73 | 63 | 66 | 79 | 68 |  |  |  |  |  |  |  |  |  |  |  |
| YKSVRTWNEILPSKG | 137 | 66 | 113 |  |  |  | 94 | 117 | 132 |  |  |  |  |  |  |  |  |
| CGFVDERGLYKSLKG | 115 | 72 | 94 |  |  |  | 76 | 85 | 90 |  |  |  |  |  |  |  |  |
| VLGLRLMDGTWVAMQ | 141 | 90 | 107 |  |  |  | 106 | 94 | 108 |  |  |  |  |  |  |  |  |
| GVLGLRLMDGTWVAM | 148 | 89 | 107 |  |  |  | 83 | 118 | 104 |  |  |  |  |  |  |  |  |
| LGPWSPIDIHHLSCP | 112 | 69 | 84 | 83 | 88 | 72 |  |  |  |  |  |  |  |  |  |  |  |
| SCDIFTNSRGKRASK | 111 | 44 | 89 | 79 | 1 | 57 |  |  |  |  |  |  |  |  |  |  |  |
| YTIWMPENPRLGMSC | 132 | 97 | 111 | 132 | 191 | 93 |  |  |  | clearly bound |  |  |  |  |  |  |  |
| LSCPNNLVVEDEGCT | 117 | 69 | 90 | 74 | 72 | 97 |  |  |  |  |  |  |  |  |  |  |  |
| NQVSGVDLGLPNWGK |  |  |  |  |  |  |  |  |  |  | 138 | 78 | 103 | 128 | 84 | 79 |  |
| CKLKLCGVLGLRLMD | 111 | 410 | 88 |  |  |  | 74 | 64 | 91 |  |  |  |  |  |  |  | bound |
| AAYNWKMAGDPRYEE | 106 | 68 | 78 | 90 | 104 | 78 |  |  |  |  |  |  |  |  |  |  |  |
| YTIFNKTLMEADAHY | 147 | 104 | 90 |  |  |  | 79 | 119 | 108 |  |  |  |  |  |  |  |  |
| CGVLGLRLMDGTWVA | 117 | 99 | 96 |  |  |  | 91 | 110 | 101 |  |  |  |  |  |  |  |  |
| SHLRKLVPGFGKAYT | 132 | 113 | 118 |  |  |  | 103 | 143 | 160 |  |  |  |  |  |  |  |  |
| VLIPEMQSSLLQQHM | 104 | 92 | 78 |  |  |  | 85 | 114 | 92 |  |  |  |  |  |  |  |  |
| NGFTCTGVVTEAENY | 101 | 69 | 98 | 76 | 92 | 82 |  |  |  |  |  |  |  |  |  |  |  |
| CHPHVNGVFFNGIIL | 150 | 97 | 94 |  |  |  | 101 | 113 | 105 |  |  |  |  |  |  |  |  |
| RCHPHVNGVFFNGII | 141 | 98 | 108 |  |  |  | 100 | 104 | 106 |  |  |  |  |  |  |  |  |
| KGSETCGFVDERGLY | 97 | 90 | 100 |  |  |  | 72 | 111 | 71 |  |  |  |  |  |  |  |  |
| GDEAEDFVEVHLPDV |  |  |  |  |  |  |  |  |  |  | 124 | 46 | 93 | 87 | 87 | 82 |  |
| LRTVKTTKESLVIIS | 104 | 65 | 83 | 68 | 89 | 86 |  |  |  |  |  |  |  |  |  |  |  |
| CPPDQLVNLHDFRSD | 137 | 93 | 115 |  |  |  | 123 | 137 | 92 |  |  |  |  |  |  |  |  |
| MDGTWVAMQTSNETK | 97 | 97 | 85 |  |  |  | 82 | 114 | 90 |  |  |  |  |  |  |  |  |
| LVNLHDFRSDEIEHL | 104 | 47 | 106 |  |  |  | 23 | 1 | 93 |  |  |  |  |  |  |  |  |
| SVIPLVHPLADPSTV | 137 | 72 | 64 |  |  |  | 106 | 71 | 75 |  |  |  |  |  |  |  |  |
| HLVVEELVRKREECL | 123 | 82 | 111 |  |  |  | 105 | 110 | 110 |  |  |  |  |  |  |  |  |
| GCLRVGGRCHPHVNG | 125 | 85 | 98 |  |  |  | 112 | 103 | 105 |  |  |  |  |  |  |  |  |
| LVRKREECLDALESI | 130 | 86 | 107 |  |  |  | 82 | 105 | 101 |  |  |  |  |  |  |  |  |
